Source: publication PMC5390258, “CMD-05, a novel promising clinical anti-diabetic drug candidate, in vivo and vitro studies” (Scientific Reports, 2017)

Legend:
[1] = tested on: model rats (HFD/low-dose STZ, T2DM); assay: Oral glucose tolerance test (OGTT) in HFD/STZ T2DM model rats; assay type: in vivo, rat; conditions: 3 mg/kg oral, model rats
Protocol: (§1) To establish model of T2DM, male rats (80–100 g, 9-week-old)[49] were fed high fat diet (HFD) (20% sugar, 10% lard, 10% egg yolk and 60% basal feed) after a week of normal diet. After 4 weeks, rats were injected once with low-dose streptozotocin (Solarbio, China) (STZ, 30 mg/kg i.p) to induce partial insulin deficiency, and then continuously fed HFD for 4 weeks after injection of STZ. Then the model rats were oral administrated drugs for 30 days. The body weights were recorded once a week.
On the 1st day, 19th days and 29th days of treatment, oral glucose tolerance tests for model rats were carried out. […] The blood glucose levels were tested using Johnson one touch Ultra Test Strips on Johnson Performa blood glucose meter.

insulin = assay: Plasma insulin levels in model rats (ELISA); assay type: in vivo, rat; conditions: 3 mg/kg, fasted and glucose load plasma
Protocol: as §1
(§2) Oral glucose load, fasted and random blood samples were collected from rats on the 28th days, the 29th days and the last of the treatment of drugs, respectively. Plasma levels of insulin and GLP-1 were measured by ELISA kits (YuanYe, China) according to the manufacturer’s recommendation. The levels of HbA1c, Triglycerides (TG), total cholesterol (TC) and low density lipoprotein cholesterol (LDL-C) in blood samples were measured by commercial assay kits (JianCheng, Nanjing, China) according to the manufacturer’s directions.

HbA1c = HbA1c level in blood of model rats; assay type: in vivo, rat; conditions: 3 mg/kg, 30 days
Protocol: as §1, §2

TG, LDL-C = assay: TG and LDL-C plasma levels in model rats; assay type: in vivo, rat; conditions: 3 mg/kg
Protocol: as §1, §2

[2] = Body weight of model rats; assay type: in vivo, rat; conditions: 30 days treatment
Protocol: as §1

pancreatic islets = assay: Morphologic observation on islet of model rats (HE, immunofluorescence, TEM); assay type: in vivo, rat
Protocol: HE staining on paraffin section was performed as described in reports. In brief, paraffin section were rinsed with PBS, fixed with 4% paraformaldehyde (PFA) for 30 min and then washed by PBS. The pancreas tissue were stained with Hematoxylin-Eosin, afterwards, they were dehydrated in alcohols. Morphological changes of the pancreas tissue were observed under an optical microscope (Olympus, Japan) after mounted by neutral resins.
Pancreas sections (8 μm) were cut in a cryostat and collected on superfrost microscope slides. The slides were stored at −20 °C till analysis. Immunofluorescent staining was used for detection of insulin (β cells) (1:100, Anti-Insulin antibody, Abcam), glucagon (α cells) (1:200, Anti-glucagon, Abcam). Briefly, the slides were blocked in 5% normal goat serum for 1 h in a humidified chamber. Slides were exposed to primary antibodies at a dilution of […] in antibody diluting solution at 4 °C overnight, washed in PBS, and exposed to appropriate secondary antibodies linked to the fluorescent probes (Goat Anti-Guinea pig IgG/FITC and Alexa Fluor 594-conjugated Goat Anti-Rabbit IgG) (Bioss and Proteintech, China) in antibody diluting solution for 1 h and DAPI (Beyotime, China) for 5 min in the dark. After washed by PBS, slides were mounted with a glycerol mounting medium. Images were collected using a fluorescent microscope (Nikon, Japan).
For transmission electron microscopy, about 1 mm^3 tissue specimens were obtained from the same pancreas region of the control and experimental groups of rats, and fixed overnight in 2% glutaraldehyde (pH7.3) in 0.1 M phosphate buffer saline at 4 °C. Images of pancreatic islets were captured from random tissue sections using a transmission electron microscope.

INS-1 cells = assay: Proliferation of INS-1 cells (CCK-8); assay type: cell-based, rat; conditions: 24 h, CCK-8, vs DMSO
Protocol: The rat insulinoma cell line INS-1 (832/13) was obtained from the Department of endocrinology at 1st affiliated hospital of Chongqing medical university. Cells were cultured in RPMI 1640 (Gibco, USA) (11 mmol/l glucose, 100 units/ml penicillin, […] streptomycin, 10 mmol/l HEPES pH 7.4) supplemented with 10% FBS (Gibco, USA), 2 mmol/l L-glutamine, 1 mmol/l pyruvate, and 50 μmol/l β-mercaptoethanol. […] 10 μl of CCK-8 was then added and incubated at 37 °C and 5% CO2 for 1.5 h and […] (OD) was read at 460 nm with microplate reader. The OD value represents the proliferation activity.

NCI-H716 cells = assay: GLP-1 secretion in NCI-H716 cells; assay type: cell-based, human; conditions: 10, 30, 100 μM, 2 h, compared with solvent group
Protocol: Human enteroendocrine NCI-H716 cells were maintained in suspension culture as described by the American Type Culture Collection guideline (ATCC). Two days before the experiments, cells were seeded into 12-well culture plates coated with Matrigel at 1 × 10^6 cells per well. Cells were incubated in RPMI 1640 containing 10% FBS at 37 °C for 48 h. […] After incubated for 2 h, GLP-1 concentrations from the supernatants were measured by ELISA kits (YuanYe, China).

With `N#C[C@@H]1CCCN1C(=O)CNC12CC3CC(CC(O)(C3)C1)C2` [vildagliptin, reference compound] the “percentage reduction of blood glucose levels in OGTT” value (shortened to “percentage reduction”) ([1]; 1st day) was 8.9%, the “percentage reduction” value ([1]; 19th day) was 10.1% and the “percentage reduction” value ([1]; 29th day) was 17.8%. The “insulin levels in plasma” value (insulin) was “significantly increased”, the “reduction of the level of HbA1c” value (HbA1c) was 2.0% and the “reduction of LDL-C level” value (TG, LDL-C) was 15.97%. The “reduction of TG level” value (TG, LDL-C) was 38.79%, the “body weights vs model group” value [2] was “no significant difference” and the “distribution of β cells (insulin/glucagon double staining)” value (pancreatic islets; 30 days treatment) was “obviously improved”. The “mass of α-cells (insulin/glucagon double staining)” value (pancreatic islets; 30 days treatment) was “mildly reduced”, the “morphology of pancreatic islets (HE staining)” value (pancreatic islets; 30 days treatment) was “prevent islet from damage” and the “secretory granules in β cells (transmission electron microscopy)” value (pancreatic islets; compared with the model) was “obviously increased”. The “cells viabilities (proliferation) of INS-1 cells” value (INS-1 cells) was “increased” and the “GLP-1 levels (secretion)” value (NCI-H716 cells) was “increased slightly without significance”.
